From PubChem BioAssay AID1845211 (Molecular Pharmacology Branch, DTP, NCI, 2023)
Values joined by “and” are separate entries in the source; they are usually repeats but may differ in a detail not shown here. Identical values can stand only once.

System: NCI-H322M multicellular tumor spheroids, viability (% test/control)
Assay: Anticancer human tumor NCI-H322M cell line growth inhibition;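 for viability, T/C: spheroids exposed to compound for seven days before readout; 100% = DMSO vehicle control wells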
Conditions: for viability, T/C: stronger effect = lower value
Description: Multicellular complex tumor spheroid response to DNA repair inhibitors in combination with DNA-damaging drugs
This study explores the anticancer activities of DNA-damaging drugs and inhibitors of DNA damage repair, both as single agents and in combinations. Complex tumor spheroids comprised of malignant cells, endothelial cells and mesenchymal stem cells served as an in vitro model for human solid tumors. This model system incorporates physiologically relevant features and patient-derived or established malignant cell lines with clinically relevant genetic alterations from many tumor types. Twenty-six patient-derived or established malignant cell lines were evaluated representing sarcoma, melanoma, small cell lung cancer (SCLC), non-small cell lung cancer (NSCLC), as well as bladder, ovarian and pancreatic cancers. The concentration ranges selected for each drug and investigational agent were based upon clinically achievable concentrations if the clinical Cmax of the agent was known.
Compounds. The drugs and compounds olaparib (NSC753686), talazoparib (NSC767125), berzosertib (NSC777718), elimusertib (NSC800525), nedisertib (NSC802822), VX-984 (NSC792969), AZD-1390 (NSC803789), temozolomide (NSC362856), topotecan (NSC609699), trabectedin (NSC813783), staurosporine (NSC755774), and gemcitabine (NSC613327) were obtained from the National Cancer Institute (NCI) Developmental Therapeutics Program Chemical Repository. The FDA-approved anticancer drug set is available from the Developmental Therapeutics Program at https://dtp.cancer.gov/organization/dscb/obtaining/available_plates.htm. […] The stock solutions were prepared in dimethyl sulfoxide (DMSO, Sigma-Aldrich, St. Louis, MO, cat. D2650) at 400-fold the tested concentration and stored at -70 degrees C. Prior to their use, the stock solutions were diluted in fresh medium and the final DMSO concentration in the assay was 0.25% (v/v). All drugs and investigational agents were tested over a range starting from a high concentration at or near the clinical Cmax and decreasing in half-log increments. If the clinical Cmax for an agent had not been determined, the highest concentration tested was 10 microM.
Cell Lines. The patient-derived cancer cell (PDC) lines: 156681-154-R-J1-PDC, 283228-195-R-J1-PDC, 287954-098-R-J1-PDC, 292921-168-R-J2-PDC, 349418-098-R-PDC, 425362-245-T-J1-PDC, 556581-035-R-J1-PDC, and BL0293-F563-PDC were received from the NCI Patient-Derived Models Repository (PDMR, https://pdmr.cancer.gov). The established cell lines HS-SY-2 (RRID:CVCL_8719), MPNST, and SYO-1 (RRID:CVCL_7146) were obtained from the Sloan Kettering Institute. The alveolar soft parts sarcoma cell line ASPS-1 (RRID:CVCL_S738) was established at the NCI and grown from internal seed stocks. The following established cell lines were purchased from the American Type Culture Collection (ATCC, Manassas, VA): G-401 (ATCC, cat. CRL-1441, RRID:CVCL_0270), SW982 (ATCC, cat. HTB-93, RRID:CVCL_1734), VA-ES-BJ (ATCC, cat. CRL-2138, RRID:CVCL_1785), NCI-H719 (ATCC, cat. CRL-5837, RRID:CVCL_1582), NCI-H196 (ATCC, cat. CRL-5823, RRID:CVCL_1509), NCI-H841 (ATCC, cat. CRL-5845, RRID:CVCL_1595), NCI-H1618 (ATCC, cat. CRL-5879, RRID:CVCL_1480), NCI-H1876 (ATCC, cat. CRL-5902, RRID:CVCL_1503), DMS 114 (ATCC, cat. CRL-2066; RRID:CVCL_1174), NCI-H211 (ATCC, cat. CRL-5824; RRID:CVCL_1529), and SW 1271 (ATCC, cat. CRL-2177, RRID:CVCL_1716). The small cell lung cancer cell line COR-L88 was purchased from Sigma-Aldrich (cat. 92031917-1VL, RRID:CVCL_1141). The non-small cell lung cancer cell lines NCI-H226 (RRID:CVCL_1544) and NCI-H322M (RRID:CVCL_1557) were established at the NCI and grown from internal seed stocks. Pooled donor human umbilical vein endothelial cells (HUVEC, Lonza, cat. CC-2519) and human mesenchymal stem cells (hMSC, Lonza, cat. PT-2501) were purchased from Lonza (Walkersville, MD).
Cell Culture. All cells were maintained in an incubator at 37 degrees C and 5% CO2 with 95% humidity. […]

[1] = curve of first compound, second compound 0.003 µM
[2] = second compound 0.003 µM, first compound 0.0316 µM
[3] = second compound 0.003 µM, first compound 0.1 µM
[4] = second compound 0.003 µM, first compound 0.316 µM
[5] = second compound 0.003 µM, first compound 1 µM
[6] = second compound 0.003 µM, first compound 3.16 µM
[7] = second compound 0.003 µM, first compound 10 µM

SMILES: CC(C)n1c(=O)n(C)c2cnc3cc(F)c(-c4ccc(OCCCN5CCCCC5)nc4)cc3c21 + CC[C@@]1(O)C(=O)OCc2c1cc1n(c2=O)Cc2cc3c(CN(C)C)c(O)ccc3nc2-1
- IC50 [1]: > 10 µM
- IC50 (curve of first compound, second compound 0.00949 µM): > 10 µM
- IC50 (curve of first compound, second compound 0.03 µM): > 10 µM
- IC50 (curve of first compound, second compound 0.0949 µM): > 10 µM
- IC50 (curve of first compound, second compound 0.3 µM): > 10 µM
- viability, T/C [2]: 73.3%
- viability, T/C [3]: 81.4%
- viability, T/C [4]: 80%
- viability, T/C [5]: 75.9%
- viability, T/C [6]: 77.4%
- viability, T/C [7]: 73.2%
- viability, T/C (second compound 0.00949 µM, first compound 0.0316 µM): 73.2%
- viability, T/C (second compound 0.00949 µM, first compound 0.1 µM): 72.8%
- viability, T/C (second compound 0.00949 µM, first compound 0.316 µM): 77.3%
- viability, T/C (second compound 0.00949 µM, first compound 1 µM): 75.3%
- viability, T/C (second compound 0.00949 µM, first compound 3.16 µM): 85.1%
- viability, T/C (second compound 0.00949 µM, first compound 10 µM): 71.4%
- viability, T/C (second compound 0.03 µM, first compound 0.0316 µM): 67.2%
- viability, T/C (second compound 0.03 µM, first compound 0.1 µM): 73.8%
- viability, T/C (second compound 0.03 µM, first compound 0.316 µM): 65.3%
- viability, T/C (second compound 0.03 µM, first compound 1 µM): 72.5%
- viability, T/C (second compound 0.03 µM, first compound 3.16 µM): 73%
- viability, T/C (second compound 0.03 µM, first compound 10 µM): 70.2%
- viability, T/C (second compound 0.0949 µM, first compound 0.0316 µM): 58.8%
- viability, T/C (second compound 0.0949 µM, first compound 0.1 µM): 56.5%
- viability, T/C (second compound 0.0949 µM, first compound 0.316 µM): 69.3%
- viability, T/C (second compound 0.0949 µM, first compound 1 µM): 65.2%
- viability, T/C (second compound 0.0949 µM, first compound 3.16 µM): 67.2%
- viability, T/C (second compound 0.0949 µM, first compound 10 µM): 68.6%
- viability, T/C (second compound 0.3 µM, first compound 0.0316 µM): 53.3%
- viability, T/C (second compound 0.3 µM, first compound 0.1 µM): 50.3%
- viability, T/C (second compound 0.3 µM, first compound 0.316 µM): 54.7%
- viability, T/C (second compound 0.3 µM, first compound 1 µM): 62.6%
- viability, T/C (second compound 0.3 µM, first compound 3.16 µM): 61.6%
- viability, T/C (second compound 0.3 µM, first compound 10 µM): 55%

SMILES: CC1COCCN1c1cc(-c2ccnn2C)c2ccnc(-c3ccn[nH]3)c2n1 (configuration not stated) + COc1cc2c(cc1O)CCNC21CSC2c3c(OC(C)=O)c(C)c4c(c3C(COC1=O)N1C(O)C3Cc5cc(C)c(OC)c(O)c5C(C21)N3C)OCO4
- IC50 (curve of first compound, second compound 30 pM): < 0.0316 µM
- IC50 (curve of first compound, second compound 94.9 pM): < 0.0316 µM
- IC50 (curve of first compound, second compound 0.0003 µM): < 0.0316 µM
- IC50 (curve of first compound, second compound 0.000949 µM): < 0.0316 µM
- IC50 [1]: < 0.0316 µM
- viability, T/C (second compound 30 pM, first compound 0.0316 µM): 50.9%
- viability, T/C (second compound 30 pM, first compound 0.1 µM): 34.8%
- viability, T/C (second compound 30 pM, first compound 0.316 µM): 28.1%
- viability, T/C (second compound 30 pM, first compound 1 µM): 29.2%
- viability, T/C (second compound 30 pM, first compound 3.16 µM): 31%
- viability, T/C (second compound 30 pM, first compound 10 µM): 33%
- viability, T/C (second compound 94.9 pM, first compound 0.0316 µM): 42.3%
- viability, T/C (second compound 94.9 pM, first compound 0.1 µM): 29.3%
- viability, T/C (second compound 94.9 pM, first compound 0.316 µM): 27.5%
- viability, T/C (second compound 94.9 pM, first compound 1 µM): 25.9%
- viability, T/C (second compound 94.9 pM, first compound 3.16 µM): 29.2%
- viability, T/C (second compound 94.9 pM, first compound 10 µM): 32.3%
- viability, T/C (second compound 0.0003 µM, first compound 0.0316 µM): 28%
- viability, T/C (second compound 0.0003 µM, first compound 0.1 µM): 21.1%
- viability, T/C (second compound 0.0003 µM, first compound 0.316 µM): 21%
- viability, T/C (second compound 0.0003 µM, first compound 1 µM): 22.7%
- viability, T/C (second compound 0.0003 µM, first compound 3.16 µM): 24.3%
- viability, T/C (second compound 0.0003 µM, first compound 10 µM): 26.8%
- viability, T/C (second compound 0.000949 µM, first compound 0.0316 µM): 19.4%
- viability, T/C (second compound 0.000949 µM, first compound 0.1 µM): 15%
- viability, T/C (second compound 0.000949 µM, first compound 0.316 µM): 17%
- viability, T/C (second compound 0.000949 µM, first compound 1 µM): 19.7%
- viability, T/C (second compound 0.000949 µM, first compound 3.16 µM): 18.8%
- viability, T/C (second compound 0.000949 µM, first compound 10 µM): 18%
- viability, T/C [2]: 3.51%
- viability, T/C [3]: 3.16%
- viability, T/C [4]: 3.09%
- viability, T/C [5]: 2.33%
- viability, T/C [6]: 2.23%
- viability, T/C [7]: 0.78%

SMILES: [2H]c1nc(C)nc([2H])c1-c1cc(NC[C@@H](C)c2cccc3c(C(=O)NC)ccnc23)ncn1
- viability, T/C (compound 0.0316 µM): 78.5% and 92.3% and 103%
- viability, T/C (compound 0.1 µM): 84.9% and 85.2% and 114%
- viability, T/C (compound 0.316 µM): 81% and 104% and 97.4%
- viability, T/C (compound 1 µM): 85.9% and 101% (2×)
- viability, T/C (compound 3.16 µM): 84.4% and 87.3% and 106%
- viability, T/C (compound 10 µM): 88.4% and 85.9% and 108%
- IC50 (curve of compound): > 10 µM
